The target of assay [1] is récepteur AMPA. The assay is described as follows: AMPA-induced currents in Xenopus oocytes injected with rat cerebral cortex mRNA (two-electrode voltage clamp). It is filed as cell-based. Conditions: for Ki: Xenopus oocyte, AMPA 30 µM, -60 mV, read-out: Courant AMPA Ki; for Oocyte de Xenopus Ki AMPA/Ki NMDA/Gly: ratio of Ki on AMPA current to Ki on NMDA/Gly current. Here is the method:
(§1) Des oocytes de Xenopus sont injectés de 50 ng d'ARNm poly (A^+) isolés de cortex cérébral de Rat et incubés 2 à 3 Jours à 18°C pour en permettre l'expression protéique. Les courants entrants induits par les AAE sont mesurés dans un milieu de composition : NaCl (82,5 mM), KCl (2,5 mM), CaCl₂ (1 mM), MgCl₂ (1 mM), NaH₂PO₄ (1 mM), HEPES (5 mM), pH 7,4 par la méthode du Voltage-clamp à 2 électrodes (potentiel = - 60 mV). Pour la mesure des courants induits par le NMDA et la glycine, MgCl₂ est absent du milieu et le CaCl₂ est amené à la concentration de 2 mM. Les agonistes AAE induisant les courants sont utilisés aux concentrations suivantes : kainate : 100 µM; AMPA : 30 µM; glycine/NMDA : 3/30 µM. Le produit étudié est appliqué 30 secondes avant et durant l'application de l'agoniste.
A general note: In two-electrode clamp one electrode senses voltage and the other passes current.

For assay [2], the target named is récepteur AMPA. As to the kind of experiment: Membrane binding (3H-AMPA), rat cortex homogenate. Conditions: binding to AMPA receptor, rat cortex membranes, 4°C, 30 min. Here is the method:
Il est réalisé à partir d'un homogénat de cortex de Rat. Le culot membranaire est classiquement préparé dans un tampon saccharose par centrifugations différentielles puis congelé jusqu'à utilisation. Après décongélation, 200 µl d'homogénat de membranes sont repris dans un tampon Tris HCl (30 mM), CaCl₂ (2,5 mM), pH 7,4 et incubés à 4°C pendant 30 minutes en présence de 25 µl de ³H-AMPA ou de ³H-Kainate et de 25 µl du produit à tester. La liaison non-spécifique est déterminée en présence de 10 µM de quisqualate (binding AMPA) ou de 10 µM d'acide kainique (binding kainate). Les membranes sont ensuite isolées par filtration. Après séchage des filtres, la radioactivité est mesurée par scintillation.

In assay [3] the test system is récepteurs AMPA/Kainate. As to the kind of experiment: Hippocampal EPSP induced by AMPA/Kainate receptor activation (rat hippocampal slices, Schäffer collaterals stimulation). It is filed as cell-based. Conditions: for IC50: rat hippocampal slices, CA1, in presence of Mg++ (blocks NMDA receptors), read-out: IC50 (inhibition des EPSP hippocampiques induits par l'activation des récepteurs AMPA/Kainate); for EPSP hippocampique IC50 AMPA-Kainate/IC50 NMDA-Glycine: ratio of IC50 on AMPA-Kainate EPSP to IC50 on NMDA-Glycine EPSP. As for the experimental part:
Des coupes transversales (500 µm) d'hippocampe de Rat sont placées dans un milieu de composition : NaCl (120 mM), KCl (5 mM), CaCl₂ (1 mM), MgSO₄ (1 mM), KH₂PO₄ (1,3 mM), NaHCO₃ (20 mM), HEPES (10 mM), glucose (10 mM), pH 7,35. Les "EPSP" sont enregistrés dans le champ dendritique de la région CA1 lors de stimulations toutes les 30 secondes de la stratum radiatum (50-100 µA, 20 µs). Les EPSP sont évalués au maximum de l'onde négative. Le produit étudié est appliqué durant 10 minutes.

Assay [4] has as its system récepteur kainate. As to the kind of experiment: Kainate-induced currents in Xenopus oocytes injected with rat cerebral cortex mRNA (two-electrode voltage clamp). It is filed as cell-based. Conditions: Xenopus oocyte, kainate 100 µM, -60 mV; read-out: Courant Kainate IC50. Here is the method:
as §1

Each structure is given as a SMILES string. Bounds are passed on as bounds.

A word on the Ki: it is a dissociation constant, usually derived from enzyme kinetics or from competition with a known ligand.

On to `O=c1[nH]c2cc([N+](=O)[O-])ccc2cc1NS(=O)(=O)C(F)(F)F` [Exemple 2, 7-Nitro-3-(trifluorométhylsulfonylamino)-2-(1H)-quinoléinone], for which the Ki in assay [1] was found to be 370 nM; in assay [2], 600 nM. Moreover, the “Oocyte de Xenopus Ki AMPA/Ki NMDA/Gly” value in assay [1] was 0,60. Also, the IC50 in assay [3] came out at 10000 nM; in assay [4] it was 500 nM. In assay [3], the “EPSP hippocampique IC50 AMPA-Kainate/IC50 NMDA-Glycine” value was 0,25.

Take `NS(=O)(=O)c1cccc2c3c(cc([N+](=O)[O-])c12)=NC(=O)C(=O)N=3` [NBQX, 6-nitro-7-sulfamoylbenzo[f]quinoxaline-2,3-dione]: in assay [1], the inhibition constant (Ki) amounted to 60 nM and the “Oocyte de Xenopus Ki AMPA/Ki NMDA/Gly” value was << 0,001. For the same molecule, in assay [3], the IC50 amounted to 1000 nM and the “EPSP hippocampique IC50 AMPA-Kainate/IC50 NMDA-Glycine” value is on record as << 0,001. The IC50 in assay [4] was found to be 60 nM.

As to `N#Cc1cc2c(cc1[N+](=O)[O-])=NC(=O)C(=O)N=2` [CNQX, 6-cyano-7-nitroquinoxaline-2,3-dione], the Ki turned out to be 400 nM in assay [1] and 70 nM in assay [2]. Besides, the “Oocyte de Xenopus Ki AMPA/Ki NMDA/Gly” value in assay [1] is listed as 0,19. Also, the IC50 in assay [3] was determined as 2900 nM; in assay [4] it was 270 nM. Also, the “EPSP hippocampique IC50 AMPA-Kainate/IC50 NMDA-Glycine” value in assay [3] is 0,03.

(Values after patent EP0542609B1, “3-sulfonylamino-2-(1H)-quinolinones and 7-aza derivatives as excitatory amino acids antagonists” (ADIR ET COMPAGNIE, priority 1991, dated 1993).)
